Data as given in US6737383B1, “Herbicidal oxadiazolidines” (priority 1999, dated 2004).

Experiments:
blackgrass = assay: Test B pre/postemergence blackgrass; assay type: in vivo, Alopecurus myosuroides
Summary of the method: (§1)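 Response is a visual 0-to-10 score relative to untreated plants, where 0 means no effect and 10 means complete control, taken twelve to sixteen days after application. Treatments went onto soil at planting and onto foliage of 1- to 4-leaf plants, using a surfactant-containing non-phytotoxic solvent.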

smallflower flatsedge = assay: Test B flood test smallflower flatsedge; assay type: in vivo, Cyperus difformis
Summary of the method: (§2)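 Flood test on plants grown to the 2-leaf stage; treated plants kept in greenhouse twelve to sixteen days, then visually rated against controls on a 0 (no effect) to 10 (complete control) scale.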

duck salad = assay: Test B flood test duck salad; assay type: in vivo, Heteranthera limosa
Summary of the method: as §2

wild oat = assay: Test B pre/postemergence wild oat; assay type: in vivo, Avena fatua
Summary of the method: as §1

crabgrass = assay: Test B pre/postemergence crabgrass; assay type: in vivo, Digitaria sanguinalis
Summary of the method: as §1

bamyardgrass = assay: Test B flood test barnyardgrass; assay type: in vivo, Echinochloa crus-galli
Summary of the method: as §2

velvetleaf = assay: Test B pre/postemergence velvetleaf; assay type: in vivo, Abutilon theophrasti
Summary of the method: as §1

bedstraw = assay: Test B pre/postemergence bedstraw; assay type: in vivo, Galium aparine
Summary of the method: as §1

cocklebur = assay: Test B pre/postemergence cocklebur; assay type: in vivo, Xanthium strumarium
Summary of the method: as §1

morningglory = assay: Test B pre/postemergence morningglory; assay type: in vivo, Ipomoea hederacea
Summary of the method: as §1

corn = assay: Test B pre/postemergence corn; assay type: in vivo, Zea mays
Summary of the method: as §1

wheat = assay: Test B pre/postemergence wheat; assay type: in vivo, Triticum aestivum
Summary of the method: as §1

surinam grass = assay: Test B pre/postemergence surinam grass; assay type: in vivo, Brachiaria decumbens
Summary of the method: as §1

giant foxtail = assay: Test B pre/postemergence giant foxtail; assay type: in vivo, Setaria faberii
Summary of the method: as §1

purple nutsedge = assay: Test B pre/postemergence purple nutsedge; assay type: in vivo, Cyperus rotundus
Summary of the method: as §1

rice = assay: Test B flood test rice; assay type: in vivo, Oryza sativa
Summary of the method: as §2

[1] = Postemergence, Rate 250 g/ha, scale 0 to 10, 0 no effect, 10 complete control
[2] = Postemergence, Rate 1000 g/ha, scale 0 to 10 (0 no effect, 10 complete control)
[3] = Preemergence, Rate 125 g/ha, scale 0 to 10 (0 no effect, 10 complete control)
[4] = Preemergence, Rate 250 g/ha, scale of 0 to 10 where 0 is no effect and 10 is complete control
[5] = Preemergence, Rate 500 g/ha, scale 0 (no effect) to 10 (complete control)
[6] = Rate 125 g/ha, Postemergence, scale 0 to 10, 0 no effect, 10 complete control
[7] = Rate 500 g/ha, Postemergence, 0 to 10 scale (0 no effect, 10 complete control)
[8] = Rate 1000 g/ha, Preemergence, scale 0 to 10 (0 no effect, 10 complete control)
[9] = Rate 125 g/ha, Postemergence section (flood test species), scale 0 to 10, 0 no effect, 10 complete control
[10] = flood test, listed under Postemergence, Rate 250 g/ha, scale 0 to 10, 0 no effect, 10 complete control
[11] = Rate 500 g/ha, Postemergence section of Table B, 0 to 10 scale (0 no effect, 10 complete control)

CCN(CC)C(=O)n1oc(=O)n(-c2ccc(OC(F)(F)F)cc2)c1=O [Compound 12] was tested, and the “Blackgrass plant response rating” value (blackgrass; [1]) was 0, the “Blackgrass plant response rating” value (blackgrass; [2]) was 0 and the “Plant response rating, Blackgrass” value (blackgrass; [3]) was 0. For the same compound, the “Plant response rating, Blackgrass” value (blackgrass; [4]) was 0, the “Blackgrass plant response rating” value (blackgrass; [5]) was 2 and the “Blackgrass plant response rating” value (blackgrass; [6]) was 0. For the same compound, the “Blackgrass plant response rating” value (blackgrass; [7]) was 0, the “Plant response rating, Blackgrass” value (blackgrass; [8]) was 4 and the “S. Flatsedge plant response rating” value (smallflower flatsedge; [2]) was 0. For the same compound, the “S. Flatsedge plant response rating” value (smallflower flatsedge; [9]) was 0, the “S. Flatsedge plant response rating” value (smallflower flatsedge; [10]) was 0 and the “Ducksalad plant response rating” value (duck salad; [2]) was 0. For the same compound, the “Ducksalad plant response rating” value (duck salad; [9]) was 0, the “Ducksalad plant response rating” value (duck salad; [11]) was 0 and the “Ducksalad plant response rating” value (duck salad; [10]) was 0. For the same compound, the “Wild oats plant response rating” value (wild oat; [1]) was 0, the “Wild oats plant response rating” value (wild oat; [2]) was 0 and the “Plant response rating, Wild oats” value (wild oat; [3]) was 0. The “Plant response rating, Wild oats” value (wild oat; [4]) was 0, the “Wild oats plant response rating” value (wild oat; [5]) was 0 and the “Wild oats plant response rating” value (wild oat; [6]) was 0. For the same compound, the “Plant response rating, Wild oats” value (wild oat; [8]) was 0, the “Crabgrass plant response rating” value (crabgrass; [1]) was 0 and the “Crabgrass plant response rating” value (crabgrass; [2]) was 0. For the same compound, the “Plant response rating, Crabgrass” value (crabgrass; [3]) was 0, the “Plant response rating, Crabgrass” value (crabgrass; [4]) was 0 and the “Crabgrass plant response rating” value (crabgrass; [5]) was 0. The “Crabgrass plant response rating” value (crabgrass; [6]) was 0, the “Crabgrass plant response rating” value (crabgrass; [7]) was 0 and the “Plant response rating, Crabgrass” value (crabgrass; [8]) was 6. For the same compound, the “Barnyardgrass plant response rating” value (bamyardgrass; [2]) was 0, the “Barnyardgrass plant response rating” value (bamyardgrass; [9]) was 0 and the “Barnyardgrass plant response rating” value (bamyardgrass; [11]) was 0. For the same compound, the “Barnyardgrass plant response rating” value (bamyardgrass; [10]) was 0, the “Velvetleaf plant response rating” value (velvetleaf; [1]) was 0 and the “Velvetleaf plant response rating” value (velvetleaf; [2]) was 0. The “Plant response rating, Velvetleaf” value (velvetleaf; [3]) was 0, the “Plant response rating, Velvetleaf” value (velvetleaf; [4]) was 0 and the “Velvetleaf plant response rating” value (velvetleaf; [5]) was 0. The “Velvetleaf plant response rating” value (velvetleaf; [6]) was 0, the “Plant response rating, Velvetleaf” value (velvetleaf; [8]) was 0 and the “Bedstraw plant response rating” value (bedstraw; [1]) was 0. The “Bedstraw plant response rating” value (bedstraw; [2]) was 0, the “Plant response rating, Bedstraw” value (bedstraw; [3]) was 0 and the “Plant response rating, Bedstraw” value (bedstraw; [4]) was 0. For the same compound, the “Bedstraw plant response rating” value (bedstraw; [5]) was 0, the “Bedstraw plant response rating” value (bedstraw; [6]) was 0 and the “Bedstraw plant response rating” value (bedstraw; [7]) was 0. The “Plant response rating, Bedstraw” value (bedstraw; [8]) was 0, the “Cocklebur plant response rating” value (cocklebur; [1]) was 0 and the “Cocklebur plant response rating” value (cocklebur; [2]) was 0. The “Plant response rating, Cocklebur” value (cocklebur; [3]) was 0, the “Plant response rating, Cocklebur” value (cocklebur; [4]) was 0 and the “Cocklebur plant response rating” value (cocklebur; [5]) was 0. For the same compound, the “Cocklebur plant response rating” value (cocklebur; [6]) was 0, the “Cocklebur plant response rating” value (cocklebur; [7]) was 0 and the “Plant response rating, Cocklebur” value (cocklebur; [8]) was 0. The “Morningglory plant response rating” value (morningglory; [1]) was 0, the “Morningglory plant response rating” value (morningglory; [2]) was 0 and the “Plant response rating, Morningglory” value (morningglory; [3]) was 0. For the same compound, the “Plant response rating, Morningglory” value (morningglory; [4]) was 0, the “Morningglory plant response rating” value (morningglory; [5]) was 0 and the “Morningglory plant response rating” value (morningglory; [6]) was 0. For the same compound, the “Morningglory plant response rating” value (morningglory; [7]) was 0, the “Plant response rating, Morningglory” value (morningglory; [8]) was 0 and the “Corn plant response rating” value (corn; [1]) was 0. The “Corn plant response rating” value (corn; [2]) was 0, the “Plant response rating, Corn” value (corn; [3]) was 0 and the “Plant response rating, Corn” value (corn; [4]) was 0. For the same compound, the “Corn plant response rating” value (corn; [5]) was 0, the “Corn plant response rating” value (corn; [6]) was 0 and the “Corn plant response rating” value (corn; [7]) was 0. For the same compound, the “Plant response rating, Corn” value (corn; [8]) was 0, the “Wheat plant response rating” value (wheat; [1]) was 0 and the “Wheat plant response rating” value (wheat; [2]) was 0. The “Plant response rating, Wheat” value (wheat; [3]) was 0, the “Plant response rating, Wheat” value (wheat; [4]) was 0 and the “Wheat plant response rating” value (wheat; [5]) was 0. The “Wheat plant response rating” value (wheat; [6]) was 0, the “Plant response rating, Wheat” value (wheat; [8]) was 0 and the “B. signalgrass plant response rating” value (surinam grass; [1]) was 0. For the same compound, the “B. signalgrass plant response rating” value (surinam grass; [2]) was 0, the “Plant response rating, B. signalgrass” value (surinam grass; [3]) was 0 and the “Plant response rating, B. signalgrass” value (surinam grass; [4]) was 0. The “B. signalgrass plant response rating” value (surinam grass; [5]) was 0, the “B. signalgrass plant response rating” value (surinam grass; [6]) was 0 and the “B. signalgrass plant response rating” value (surinam grass; [7]) was 0. The “Plant response rating, B. signalgrass” value (surinam grass; [8]) was 6, the “Giant foxtail plant response rating” value (giant foxtail; [1]) was 0 and the “Giant foxtail plant response rating” value (giant foxtail; [2]) was 0. For the same compound, the “Plant response rating, Giant foxtail” value (giant foxtail; [3]) was 0, the “Plant response rating, Giant foxtail” value (giant foxtail; [4]) was 0 and the “Giant foxtail plant response rating” value (giant foxtail; [5]) was 2. For the same compound, the “Giant foxtail plant response rating” value (giant foxtail; [6]) was 0, the “Giant foxtail plant response rating” value (giant foxtail; [7]) was 0 and the “Plant response rating, Giant foxtail” value (giant foxtail; [8]) was 8. The “Nutsedge plant response rating” value (purple nutsedge; [1]) was 0, the “Nutsedge plant response rating” value (purple nutsedge; [2]) was 0 and the “Plant response rating, Nutsedge” value (purple nutsedge; [3]) was 0. For the same compound, the “Plant response rating, Nutsedge” value (purple nutsedge; [4]) was 0, the “Nutsedge plant response rating” value (purple nutsedge; [5]) was 0 and the “Nutsedge plant response rating” value (purple nutsedge; [6]) was 0. The “Nutsedge plant response rating” value (purple nutsedge; [7]) was 0, the “Plant response rating, Nutsedge” value (purple nutsedge; [8]) was 0 and the “Rice plant response rating” value (rice; [2]) was 0. The “Rice plant response rating” value (rice; [9]) was 0, the “Rice plant response rating” value (rice; [11]) was 0 and the “Rice plant response rating” value (rice; [10]) was 0.
